Data on three molecules can be found in patent US5668001A, “3-hydroxy-3-methyl-glutaryl-coa synthase preparation with improved stability” (MCW Research Foundation, Inc., priority 1994, dated 1997).

Where two headings read alike, the source gives them in different places.

Data set [1] deals with native avian liver HMG-CoA synthase (liver enzyme). The settings on record: read-out: Km AcCoA (Hydrolase Rxn.), absence of acetoacetyl-CoA; cited from earlier work.
Data set [2] has the same test system. The conditions noted are these: read-out: Km AcCoA (Overall Rxn.), apparent value, in presence of 20 μM acetoacetylCoA; cited from earlier work.
The target of data set [3] is T1, recombinant avian cytosolic HMG-CoA synthase (wild type, alanine replacing proline at residue 2; SEQ ID NO:2) expressed in E. coli (Gallus gallus, UniProt P23228, P2A).
T1 construct: Isolation of full length cDNA encoding avian HMG-CoA synthase from a λgt11 library has been reported; made in house; host or cells: E. coli BL21(DE3), plasmid pACS (pET-3d)
T1 sequence (P23228 2-522 P2A limits assumed): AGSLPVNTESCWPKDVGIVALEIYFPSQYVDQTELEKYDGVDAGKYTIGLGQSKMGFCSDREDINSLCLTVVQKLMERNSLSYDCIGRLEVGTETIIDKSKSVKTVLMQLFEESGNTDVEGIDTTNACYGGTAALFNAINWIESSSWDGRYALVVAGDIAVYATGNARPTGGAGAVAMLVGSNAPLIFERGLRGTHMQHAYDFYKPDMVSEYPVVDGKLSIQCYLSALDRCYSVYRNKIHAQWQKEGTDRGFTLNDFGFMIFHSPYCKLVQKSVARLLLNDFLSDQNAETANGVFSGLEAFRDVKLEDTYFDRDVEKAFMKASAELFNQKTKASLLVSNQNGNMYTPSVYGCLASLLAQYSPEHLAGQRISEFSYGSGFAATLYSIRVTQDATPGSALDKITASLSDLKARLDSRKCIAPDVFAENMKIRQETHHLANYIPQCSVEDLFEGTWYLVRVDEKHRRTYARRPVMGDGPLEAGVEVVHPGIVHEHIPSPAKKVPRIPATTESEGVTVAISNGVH
Description: R.CoA binding by EPR (Scatchard plot). On the set-up: species or system avian (chicken). The settings on record: 50 mM sodium phosphate pH 7.0, ambient temperature. On the procedure: Measurement of R.CoA Binding by EPR. Conventional X-band EPR spectra were recorded using a Varian Century-Line 9-GHz spectrometer. The samples contained variable concentrations of HMG-CoA synthase sites (0-930 μM) in 50 mM sodium phosphate buffer, pH 7.0, and 50 or 150 μM R.CoA. R.CoA bound to HMG-CoA synthase was calculated by comparing the amplitudes of high, center, or low-field lines of sample spectra to the corresponding lines observed with a solution containing an equal concentration of R.CoA in buffer. The data were analyzed (Miziorko et al., (1979) Biochemistry 18, 399-403) by Scatchard plot using linear regression analysis. The spectra were recorded at ambient temperature with a modulation amplitude of 1 G, modulation frequency of 100 KHz and microwave power 5 mW. Field sweep was 100 G and time constant was 0.5 sec. The EPR spectrum of bound R.CoA was obtained at 5 G modulation amplitude and variable gain. Rotational correlation time of the bound spin label was determined using a spectral simulation algorithm (Freed, (1976) Spin Labeling: Theory and Applications (L. Berliner, ed.) 1, 53-132; Schneider, et al. (1989) Biological Magnetic Resonance 8, 1-76).

Substrate in data set [4]: CC(=O)SCCNC(=O)CCNC(=O)[C@H](O)C(C)(C)COP(=O)(O)OP(=O)(O)OC[C@H]1O[C@@H](n2cnc3c(N)ncnc32)[C@H](O)[C@@H]1OP(=O)(O)O
Put plainly: purified protein, by the assay type. The conditions noted are these: other: recombinant enzyme.

Turning to `CC(=O)SCCNC(=O)CCNC(=O)[C@H](O)C(C)(C)COP(=O)(O)OP(=O)(O)OC[C@H]1O[C@@H](n2cnc3c(N)ncnc32)[C@H](O)[C@@H]1OP(=O)(O)O` [AcCoA, acetyl-CoA], the Km – broadly, the concentration of substrate that gives half-maximal velocity – in data set [1] was 14 µM; in data set [2], 300 µM.
Regarding `CC(C)(COP(=O)(O)OP(=O)(O)OC[C@H]1O[C@@H](n2cnc3c(N)ncnc32)[C@H](O)[C@@H]1OP(=O)(O)O)[C@@H](O)C(=O)NCCC(=O)NCCSC(=O)C1CC(C)(C)N([O])C1(C)C` (some centres unmarked) [R.CoA], the Kd (in general, the constant that tells how readily two partners part at equilibrium) in data set [3] was determined as 102 µM.

B1: recombinant avian cytosolic HMG-CoA synthase (wild type, alanine replacing proline at residue 2; SEQ ID NO:2) expressed in E. coli (Gallus gallus; P2A) (protein)
chain: T1 sequence (P23228 2-522 P2A limits assumed)
For the molecule B1, the Michaelis-Menten constant (Km) is 12 µM in data set [4] (absence of acetoacetyl-CoA, pH 8.0, 30° C., pH 8.0) and 270 µM in data set [4] (apparent value, in presence of 20 μM acetoacetylCoA, 30° C., pH 8.2, pH 8.2).
